Test results from PubChem BioAssay (NCI).
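Five concentrations, 48 hours, 96-well plates. The concentration for full growth arrest is given as TGI.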 Where a SMILES comes first, the peptide text is derived from it. [ ]: non-standard residue; d: D form. The star is where a group is joined. ξ: configuration not given here. ξPhe(4-NO2) = NC(Cc1ccc([N+](=O)[O-])cc1)C(=O)O; Boc = CC(C)(C)OC(=O)*; OBn = c1ccc(CO*)cc1

Key:
Assay in all cases: growth of human tumour cells (NCI), 48 h
NCI-H522 lung = system: NCI-H522 lung
SF-268 CNS = system: SF-268 CNS
UO-31 renal = system: UO-31 renal
SF-295 CNS = system: SF-295 CNS
NCI/ADR-RES ovarian = system: NCI/ADR-RES ovarian
SK-OV-3 ovarian = system: SK-OV-3 ovarian
T-47D breast = system: T-47D breast
LOX IMVI melanoma = system: LOX IMVI melanoma
UACC-62 melanoma = system: UACC-62 melanoma
SNB-19 CNS = system: SNB-19 CNS
SW-620 colon = system: SW-620 colon
HT29 colon = system: HT29 colon
SN12C renal = system: SN12C renal

| Compound | TGI (NCI-H522 lung) [µM] | TGI (SF-268 CNS) [µM] | TGI (UO-31 renal) [µM] | TGI (SF-295 CNS) [µM] | TGI (NCI/ADR-RES ovarian) [µM] | TGI (SK-OV-3 ovarian) [µM] | TGI (T-47D breast) [µM] | TGI (LOX IMVI melanoma) [µM] | TGI (UACC-62 melanoma) [µM] | TGI (SNB-19 CNS) [µM] | TGI (SW-620 colon) [µM] | TGI (HT29 colon) [µM] | TGI (SN12C renal) [µM] |
| --- | --- | --- | --- | --- | --- | --- | --- | --- | --- | --- | --- | --- | --- |
| Cc1ccc(S(=O)(=O)NC(=O)NCC(=O)NCC(=O)O)cc1 | > 100 | > 100 | > 100 | > 100 | > 100 | > 100 | > 100 | > 100 | > 100 | > 100 | > 100 | > 100 |  |
| CC(C)(C)OC(=O)NC(Cc1ccc([N+](=O)[O-])cc1)C(=O)NCC(=O)OCc1ccccc1 (centres undefined) (Boc-[ξPhe(4-NO2)]-Gly-OBn) | 53 | 38.6 | 45.4 | 40.2 | > 100 | 64.8 | > 100 | 31.2 | 32 | > 100 | > 100 | 61.3 | 45.9 |
| COc1ccc(C2SC(N)=Nc3c2c(C)nn3C(=O)c2ccc(Cl)cc2)cc1 (centres undefined) | > 10 | > 10 |  | > 10 | > 10 | > 10 | > 10 | > 10 | > 10 | > 10 | > 10 | > 10 | > 10 |
| COc1ccc(OC)c(NC(=O)C(=O)Nn2c(=S)[nH]c3ccccc3c2=O)c1 | > 100 | > 100 | > 100 | > 100 | > 100 | > 100 | > 100 | > 100 | > 100 | > 100 | > 100 | > 100 | > 100 |
| COc1cc(C)cc2c1C(=O)C(Br)=CC2=O | 3.19 | 35.8 | 11.3 | 30 | 74.9 | 33.8 | 4.75 | 25.7 | 23.3 | 30.2 | 3.62 | 35 | 30.9 |
| CC(=O)OCC1OC(n2c3c(c(-c4ccc(Cl)cc4)c(C#N)c2=S)C(=O)CC(C)(C)C3)C(OC(C)=O)C(OC(C)=O)C1OC(C)=O (centres undefined) | > 58.1 | 29 | > 78.5 | > 100 | > 67.8 |  | > 27.7 | 29.8 | 27.8 | > 86.8 | > 100 | > 72.2 | > 53.4 |
| Cc1cnc2[nH]c(-c3ccc(F)cc3)cc(=O)c2c1 | 50.4 | > 100 | > 100 | 99 | > 87.5 | > 68 | > 100 | > 100 | > 100 | > 100 | > 100 | > 100 | > 100 |
| Cc1ccc(S(=O)(=O)[N-]C2C(=O)c3ccccc3C(=O)C2[n+]2cccc(C(N)=O)c2)cc1 (centres undefined) | > 100 | > 100 | > 100 | > 100 | > 100 | > 100 | > 100 | > 100 | > 100 | > 100 | > 100 | > 100 | > 100 |
| NC(C(F)(F)F)(C(F)(F)F)P(=O)(c1ccccc1)c1ccccc1 |  | > 100 | > 100 | > 100 | > 100 | > 100 | > 100 | > 100 | > 100 | > 100 | > 100 | > 100 | > 100 |
| O=[N+]([O-])/C(Cl)=C(\Nc1ccccc1)C(Cl)=C(Cl)Cl | > 100 | > 100 | > 100 | 94 | 38.5 | > 100 | > 100 | 88.5 | 94.5 | > 100 |  | 69.9 | > 100 |
| Cc1cc(S(=O)(=O)Nc2nc(N)nc(N3CCOCC3)n2)c(SCC(=O)O)cc1Cl | > 10 | > 10 | > 10 | > 10 | > 10 | > 10 | > 10 | > 10 |  | > 10 | > 10 | > 10 | > 10 |
| CC(C)C[C@H](NC(=O)CCc1ccccc1)B(O)O | 31.1 | 59.4 | 60.1 | 34.5 | 49.2 |  | 43.9 | 16.7 | 72.9 | > 100 | 19.1 | 15.4 | 61.5 |
| NC(=O)C(=CN1C(=O)CC(=O)NC1=S)C(N)=O |  | > 100 | > 100 | > 100 | > 100 | > 100 | > 100 | > 100 |  | > 100 | > 100 | > 100 | > 100 |
| Nc1nc(N)nc(-c2cnccn2)n1 | > 100 | > 100 | > 100 | > 100 | > 100 | > 100 | > 100 | > 100 | > 100 | > 100 | > 100 |  | > 100 |
| CO/C(=N\N=C\c1ccc(OC)cc1OC)c1ccncc1 |  | > 10 | > 10 | > 10 | > 10 | > 10 | > 10 | > 10 |  | > 10 | > 10 |  | > 10 |
| CC1(C)C=[N+]([O-])C(C)(C)N1 |  | > 100 | > 100 | > 100 | > 100 | > 100 | > 100 | > 100 | > 100 | > 100 | > 100 | > 100 | > 100 |
| COc1ccc(C2CC(=O)Oc3ccccc3O2)cc1 (centres undefined) | 93.2 | > 100 | > 100 | > 100 | > 100 | > 100 | > 100 |  | > 100 | > 100 | > 100 | > 100 | > 100 |
| O=C1Nc2ccccc2[C@]12C[C@H]2c1ccccn1 | > 100 | > 100 | > 100 | > 100 | > 100 | > 100 | > 100 | > 100 | > 100 | > 100 | > 100 |  | > 100 |
| COc1cccc(-c2cccc(SC)n2)n1 |  |  | > 100 | > 100 | > 100 | > 100 | 75.1 | > 100 | > 100 | > 100 | > 100 | 93.8 | > 100 |
| CS(=O)(=O)c1[nH]nc2[nH]c(=O)[nH]c(=O)c12 | > 10 | > 10 |  | > 10 | > 10 | > 10 | > 10 | > 10 | > 10 | > 10 | > 10 | > 10 | > 10 |
| C[C@]12CC(c3ccccc3O1)C(C#N)C(=O)N2 (some centres undefined) |  | > 100 |  |  | > 100 | > 100 | > 100 | > 100 | > 100 | > 100 | > 100 | > 100 | > 100 |
| CC(=O)O[C@H]1C(=O)[C@@]2(C)[C@H]([C@H](OC(=O)c3ccc([N+](=O)[O-])cc3)[C@]3(O)C[C@H](OC(=O)[C@H](O)[C@@H](NC(=O)c4ccccc4)c4ccccc4)C(C)=C1C3(C)C)[C@]1(OC(C)=O)CO[C@@H]1C[C@@H]2O | > 25 | > 25 | > 25 | > 25 | > 25 | > 25 | > 25 |  | > 25 | > 25 | > 25 | > 25 | > 25 |
| OCCSCc1cc2c(O)c(c1)Cc1cc(CSCCO)cc(c1O)Cc1cc(CSCCO)cc(c1O)Cc1cc(CSCCO)cc(c1O)C2 | 14.7 | 7.78 | 28.3 | 16.7 | 64.2 | 31.7 | 26.3 | 11.9 |  | 15.9 | 15.1 | 7.4 | 22.7 |
| CCCCSC1=N/C(=C\c2ccco2)C(=O)N1 | > 100 | > 100 | > 100 | > 100 | > 100 | > 100 | > 100 |  | > 100 | > 100 | > 100 | > 100 | > 100 |
| CN1CC2=C(NC(=S)NC2c2ccc(Cl)cc2)/C(=C/c2ccc(Cl)cc2)C1 (centres undefined) | 31 | 50.4 | > 100 | 33.8 | 43.6 | 31.4 | 32.3 | 35.8 | 33.8 |  | 30.3 | 34 | 36.4 |
| CO[C@@](c1ccccc1)(c1nc(C#N)c(N)o1)C(F)(F)F | 85.9 |  | > 100 | > 100 | > 100 | > 100 | > 100 | > 100 | > 100 | > 100 | > 100 |  | > 100 |
| O=c1n(-c2ccccc2)c(=O)n2n1C1CCC2CC1 |  | > 100 | > 100 | > 100 | > 100 | > 100 | > 100 | > 100 | > 100 | > 100 | > 100 | > 100 | > 100 |
| CC1=NN2C(=O)CC(=O)N=C2S1 | > 100 | > 100 |  | > 100 | > 100 | > 100 | > 100 | > 100 | > 100 | > 100 | > 100 | > 100 | > 100 |
